# Assay results published in PubChem BioAssay AID328 (DTP/NCI, 2004).
# Values joined by “and” are separate entries in the source; they are usually repeats but may differ in a detail not shown here. Equal values may be shown once. Inconclusive results and toxic doses are left out.
# Test system: BDF1 mice, P388 leukemia ip, median survival T/C
# Assay: NCI In Vivo Anticancer Drug Screen. Data for tumor model P388 Leukemia (intraperitoneal) in B6D2F1 (BDF1) mice
# Settings: endpoint: median survival time, higher = longer survival
# How it was run: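 Antitumour effect was judged in vivo: survival in drug-treated mice, normalised to that of vehicle-dosed controls, gives the reported T/C.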
# [1] = dose: 100.0 mg/kg/injection, schedule: Q04DX003 (ip), vehicle: Klucel (hydroxypropylcellulose) (HPC)
# [2] = dose: 200.0 mg/kg/injection, schedule: Q04DX003 (ip), vehicle: Klucel (hydroxypropylcellulose) (HPC)
# [3] = dose: 400.0 mg/kg/injection, schedule: Q04DX003 (ip), vehicle: Klucel (hydroxypropylcellulose) (HPC)
# [4] = dose: 50.0 mg/kg/injection, schedule: Q01DX009 (ip), vehicle: saline with Tween-80
# [5] = dose: 100.0 mg/kg/injection, schedule: Q01DX009 (ip), vehicle: saline with Tween-80
# [6] = dose: 200.0 mg/kg/injection, schedule: Q01DX009 (ip), vehicle: saline with Tween-80
structure (smiles),measurement,setting,value
C1CCC2[N-]CC3CCCCC3[N-]CC3CCCCC3[N-]CC3CCCCC3[N-]CC2C1.[Ni+2].[O-][Cl+3]([O-])([O-])O (configuration not stated),T/C,"dose: 0.75 mg/kg/injection, schedule: Q01DX009 (ip), vehicle: saline",102 % of control
same,T/C,"dose: 1.5 mg/kg/injection, schedule: Q01DX009 (ip), vehicle: saline",110 % of control
same,T/C,"dose: 3.0 mg/kg/injection, schedule: Q01DX009 (ip), vehicle: saline",102 % of control
same,T/C,"dose: 6.0 mg/kg/injection, schedule: Q01DX009 (ip), vehicle: saline",105 % of control
CCOC(=O)NP(=O)(N1CC1(C)C)N1CC1(C)C (configuration not stated),T/C,"dose: 31.3 mg/kg/injection, schedule: Q01DX010 (ip), vehicle: saline",175 % of control
same,T/C,"dose: 62.5 mg/kg/injection, schedule: Q01DX010 (ip), vehicle: saline",175 % of control
same,T/C,"dose: 125.0 mg/kg/injection, schedule: Q01DX010 (ip), vehicle: saline",200 % of control
same,T/C,"dose: 250.0 mg/kg/injection, schedule: Q01DX010 (ip), vehicle: saline",225 % of control
C[C@]12CCC(=O)C=C1CC[C@@H]1[C@@H]2[C@@H](O)C[C@@]2(C)[C@H]1CC[C@]2(O)C(=O)COC(=O)CCC1CCCC1,T/C,"dose: 12.5 mg/kg/injection, schedule: Q01DX009 (ip), vehicle: Klucel (hydroxypropylcellulose) (HPC)",118 % of control
same,T/C,"dose: 25.0 mg/kg/injection, schedule: Q01DX009 (ip), vehicle: Klucel (hydroxypropylcellulose) (HPC)",113 % of control
same,T/C,"dose: 50.0 mg/kg/injection, schedule: Q01DX009 (ip), vehicle: Klucel (hydroxypropylcellulose) (HPC)",100 % of control
same,T/C,[1],123 % of control
same,T/C,[2],109 % of control
same,T/C,[3],109 % of control
Nc1ccc(N=Nc2ccccc2)c(N)n1,T/C,"dose: 50.0 mg/kg/injection, schedule: Q04DX003 (ip), vehicle: Klucel (hydroxypropylcellulose) (HPC)",100 % of control
same,T/C,[1],100 % of control
COC1CCC2=C(C1)C(=O)CC1c3ccccc3CN21 (configuration not stated),T/C,"dose: 25.0 mg/kg/injection, schedule: Q04DX003 (ip), vehicle: saline with Tween-80",100 % of control
same,T/C,"dose: 50.0 mg/kg/injection, schedule: Q04DX003 (ip), vehicle: saline with Tween-80",104 % of control
COc1ccc(C=C2C(=O)N(C)C(=O)N(C)C2=O)cc1,T/C,"dose: 50.0 mg/kg/injection, schedule: Q01DX009 (ip), vehicle: other",119 % of control
CCOC12c3c4cccc3C(=O)c3cccc(c31)C(=O)c1cccc(c12)C4=O,T/C,"dose: 100.0 mg/kg/injection, schedule: Q01DX001 (ip), vehicle: Klucel (hydroxypropylcellulose) (HPC)",95 % of control
same,T/C,"dose: 100.0 mg/kg/injection, schedule: Q01DX009 (ip), vehicle: Klucel (hydroxypropylcellulose) (HPC)",100 % of control
same,T/C,[1],100 % of control
same,T/C,"dose: 200.0 mg/kg/injection, schedule: Q01DX001 (ip), vehicle: Klucel (hydroxypropylcellulose) (HPC)",100 % of control
same,T/C,"dose: 200.0 mg/kg/injection, schedule: Q01DX009 (ip), vehicle: Klucel (hydroxypropylcellulose) (HPC)",100 % of control
same,T/C,[2],100 % of control
same,T/C,"dose: 400.0 mg/kg/injection, schedule: Q01DX001 (ip), vehicle: Klucel (hydroxypropylcellulose) (HPC)",109 % of control
same,T/C,"dose: 400.0 mg/kg/injection, schedule: Q01DX009 (ip), vehicle: Klucel (hydroxypropylcellulose) (HPC)",90 % of control
same,T/C,[3],91 % of control
COc1cc(/C=C/[N+](=O)[O-])c(OC)cc1Br,T/C,"dose: 3.12 mg/kg/injection, schedule: Q01DX009 (ip), vehicle: saline with Tween-80",99 % of control
same,T/C,"dose: 6.25 mg/kg/injection, schedule: Q01DX009 (ip), vehicle: saline with Tween-80",103 % of control
same,T/C,"dose: 12.5 mg/kg/injection, schedule: Q01DX009 (ip), vehicle: saline with Tween-80",105 % of control
same,T/C,"dose: 25.0 mg/kg/injection, schedule: Q01DX009 (ip), vehicle: saline with Tween-80",153 % of control
same,T/C,[4],94 % of control
CCOC(=S)SCc1cc(C(C)(C)C)c(O)c(C(C)(C)C)c1,T/C,"dose: 100.0 mg/kg/injection, schedule: Q04DX002 (ip), vehicle: saline with Tween-80",100 % of control
same,T/C,"dose: 200.0 mg/kg/injection, schedule: Q04DX002 (ip), vehicle: saline with Tween-80",99 % of control
CCCOCNC(=O)c1cccnc1,T/C,"dose: 100.0 mg/kg/injection, schedule: Q01DX001 (ip), vehicle: saline",95 % of control
same,T/C,"dose: 200.0 mg/kg/injection, schedule: Q01DX001 (ip), vehicle: saline",100 % of control
same,T/C,"dose: 400.0 mg/kg/injection, schedule: Q01DX001 (ip), vehicle: saline",100 % of control
O=c1cc(O)[nH]c(=S)[nH]1,T/C,[4],103 % of control
same,T/C,[5],99 % of control
same,T/C,[6],88 % of control
COc1cccc2c1C(=O)c1c(O)c3c(c(O)c1C2=O)CC(O)(C(=O)CO)CC3OC1CC(N)C(O)C(C)O1 (configuration not stated),T/C,"dose: 1.73 mg/kg/injection, schedule: Q01DX004 (ip), vehicle: water",234 % of control
same,T/C,"dose: 2.88 mg/kg/injection, schedule: Q01DX004 (ip), vehicle: water",246 % of control
same,T/C,"dose: 4.8 mg/kg/injection, schedule: Q01DX004 (ip), vehicle: water",283 % of control
same,T/C,"dose: 6.48 mg/kg/injection, schedule: Q04DX003 (ip), vehicle: saline",158 % of control
same,T/C,"dose: 10.8 mg/kg/injection, schedule: Q04DX003 (ip), vehicle: saline",169 % of control
same,T/C,"dose: 18.0 mg/kg/injection, schedule: Q04DX003 (ip), vehicle: saline",187 % of control
same,T/C,"dose: 30.0 mg/kg/injection, schedule: Q04DX003 (ip), vehicle: saline",116 % of control
N#CSCc1ccc(OCc2ccccc2)cc1,T/C,[4],100 % of control
same,T/C,[5],103 % of control
same,T/C,[6],112 % of control
CC(=O)Nc1ccc(S(=O)(=O)F)cc1[N+](=O)[O-],T/C,"dose: 25.0 mg/kg/injection, schedule: Q04DX003 (ip), vehicle: saline",100 % of control
same,T/C,"dose: 50.0 mg/kg/injection, schedule: Q04DX003 (ip), vehicle: saline",100 % of control
same,T/C,"dose: 100.0 mg/kg/injection, schedule: Q04DX003 (ip), vehicle: saline",115 % of control
CN(C)NCCC#N,T/C,"dose: 50.0 mg/kg/injection, schedule: Q01DX009 (ip), vehicle: saline",100 % of control
same,T/C,"dose: 66.0 mg/kg/injection, schedule: Q01DX009 (ip), vehicle: saline",111 % of control
same,T/C,"dose: 75.0 mg/kg/injection, schedule: Q01DX009 (ip), vehicle: saline",117 % of control
same,T/C,"dose: 100.0 mg/kg/injection, schedule: Q01DX009 (ip), vehicle: saline",100 % of control and 111 % of control
same,T/C,"dose: 150.0 mg/kg/injection, schedule: Q01DX009 (ip), vehicle: saline",118 % of control
same,T/C,"dose: 200.0 mg/kg/injection, schedule: Q01DX009 (ip), vehicle: saline",86 % of control
c1cc2c(c(NC3=NCCO3)c1)CCCC2,T/C,"dose: 37.5 mg/kg/injection, schedule: Q01DX009 (ip), vehicle: saline with Tween-80",113 % of control
same,T/C,"dose: 75.0 mg/kg/injection, schedule: Q01DX009 (ip), vehicle: saline with Tween-80",118 % of control
same,T/C,"dose: 150.0 mg/kg/injection, schedule: Q01DX009 (ip), vehicle: saline with Tween-80",120 % of control
OC(COC(c1ccccc1)(c1ccccc1)c1ccccc1)C(O)CC1SCCS1 (configuration not stated),T/C,"dose: 100.0 mg/kg/injection, schedule: Q01DX009 (ip), vehicle: saline sonified",100 % of control
same,T/C,"dose: 100.0 mg/kg/injection, schedule: Q04DX003 (ip), vehicle: saline sonified",112 % of control
same,T/C,"dose: 200.0 mg/kg/injection, schedule: Q01DX009 (ip), vehicle: saline sonified",110 % of control
same,T/C,"dose: 200.0 mg/kg/injection, schedule: Q04DX003 (ip), vehicle: saline sonified",100 % of control
same,T/C,"dose: 400.0 mg/kg/injection, schedule: Q01DX009 (ip), vehicle: saline sonified",95 % of control
same,T/C,"dose: 400.0 mg/kg/injection, schedule: Q04DX003 (ip), vehicle: saline sonified",108 % of control
NC(CCC(=O)NC(CSC(c1ccccc1)(c1ccccc1)c1ccc(F)cc1)C(=O)NCC(=O)O)C(=O)O (configuration not stated),T/C,"dose: 115.0 mg/kg/injection, schedule: Q04DX003 (ip), vehicle: saline",118 % of control
same,T/C,"dose: 177.0 mg/kg/injection, schedule: Q04DX003 (ip), vehicle: saline with Tween-80",118 % of control
same,T/C,"dose: 266.0 mg/kg/injection, schedule: Q04DX003 (ip), vehicle: saline with Tween-80",159 % of control
same,T/C,"dose: 266.0 mg/kg/injection, schedule: Q04DX003 (ip), vehicle: saline",181 % of control
same,T/C,"dose: 400.0 mg/kg/injection, schedule: Q04DX003 (ip), vehicle: saline with Tween-80",231 % of control
CC1=CC23C(COC(=O)C24CO4)C(C(=O)O)=CC3C1C (configuration not stated),T/C,"dose: 0.31 mg/kg/injection, schedule: Q01DX009 (ip), vehicle: Klucel (hydroxypropylcellulose) (HPC)",105 % of control
same,T/C,"dose: 0.63 mg/kg/injection, schedule: Q01DX009 (ip), vehicle: Klucel (hydroxypropylcellulose) (HPC)",113 % of control
same,T/C,"dose: 1.25 mg/kg/injection, schedule: Q01DX009 (ip), vehicle: Klucel (hydroxypropylcellulose) (HPC)",102 % of control and 117 % of control
